# Source: patent US20140073602A9, “NITRIC OXIDE DELIVERING HYDROXYALKYL STARCH DERIVATIVES” (FRESENIUS KABI DEUTSCHLAND GMBH, priority 2010, published 2014)
# Tested on: phenylephrine-precontracted aortic rings from rats
# Test: Vasodilatory influence in isolated rat aortic ring preparations
# Settings: first set; 1 microM
# Description: The aim of the experiments was to test for the vasodilatory influence of SNO-HES in isolated rat aortic ring preparations. Isolated aortic rings from rats were precontracted by phenylephrine. SNO-HES-induced relaxations were determined after defined incubation periods. In order to completely relax the aorta and to define the 100% relaxation level, papaverine was applied at the end of an experiment. Two sets of experiments were performed:
# Aortic ring preparations from adult rats (male, Lewis, 278-307 g; Janvier, St Berthevin Cedex, France) were used to perform the experiments.
# All HES derivatives were supplied by Fresenius-Kabi Deutschland GmbH. SNO-HES derivatives CNO1 and CNO8 (both prepared according to GP3, table 8) were tested alongside with their precursor SH-HES (D31, prepared according to GP2.1 and GP2.2, table 6) and the unmodified HES (HES17, table 1). The first set of experiments was performed with SNO-HES derivative CNO1, the second set with CNO8.
# Physiological solution contained (in mM) NaCl 120, KCl 5.5, MgSO4 1.2, KH2PO4 1.2, CaCl2 2.5, NaHCO3 25 and glucose 11. The solution was maintained at 37° C. and gassed with carbogen (95% O2+5% CO2 (v/v)). Phenylephrine (batch 050M1663) and papaverine (batch 010M1565) purchased from Sigma (Munich, Germany) were dissolved in distilled water to prepare stocks of 1 mM and 50 mM, respectively. […]
smiles,measurement,value
"N[C@@H](CCC(=O)N[C@@H](CSN=O)C(=O)NCC(=O)O)C(=O)O [GSNO, S-nitrosogluthatione]",Relaxation of phenylephrine-contracted aortic rings (in words),immediately and completely relaxed
